Several values for one entry are separate records, joined by “and”; a condition that tells them apart may be missing. Identical values can stand only once.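 96-well plates; 48 h exposure; 5 concentrations. Endpoints by linear interpolation between flanking doses. Not reached: highest tested concentration assigned. GI50 is the concentration that inhibits growth by half. Definition used: TGI = concentration required for complete inhibition of growth.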
Tests used:
Experiment in all cases: DTP human tumour cell line panel, 48 h
[1] = tested on: NCI-H23 lung
[2] = tested on: HCT-116 colon
[3] = tested on: ACHN renal
[4] = tested on: A549 NSCLC
[5] = tested on: SNB-19 CNS
[6] = tested on: RPMI-8226 leukemia
[7] = tested on: HCT-15 colon
[8] = tested on: T-47D breast
[9] = tested on: RXF 393 renal
[10] = tested on: COLO 205 colon

In the case of `COc1ccn2c(C(C)=O)cc(C(=O)c3ccc4c(c3)Sc3ccccc3N4)c2c1`, the GI50 [1] is reported as 136 nM, the TGI [1] is reported as > 100 µM and the GI50 [2] is reported as 67.4 nM. The TGI [2] was 4.93 µM, the GI50 [3] was 0.145 µM and the TGI [3] was > 100 µM. For the same compound, the GI50 [4] was 122 nM, the TGI [4] was > 100 µM and the GI50 [5] was 158 nM. For the same compound, the TGI [5] was > 100 µM, the GI50 [6] was 141 nM and the TGI [6] was > 100 µM. The GI50 [7] was 98.2 nM, the GI50 [8] was 44700 nM and the TGI [8] was > 100 µM. For the same compound, the GI50 [9] was 228 nM, the TGI [9] was > 100 µM and the GI50 [10] was 72.4 nM. It also gave a TGI [10] of 0.183 µM.
For `COC1(O)C(=O)c2ccccc2OC1(OC)c1ccccc1` (stereo not given), the TGI [1] was > 100 µM, the TGI [2] was > 100 µM and the TGI [3] was > 100 µM. For the same compound, the TGI [4] was > 100 µM, the TGI [5] was > 100 µM and the TGI [6] was > 100 µM. For the same compound, the TGI [7] was > 100 µM, the TGI [8] was > 100 µM and the TGI [9] was > 100 µM. For the same compound, the TGI [10] was > 100 µM.
In the case of `CS(=O)(=O)c1ccc(-c2cnc(N)c(C(=O)Nc3ccccc3)n2)cc1`, the GI50 [1] is reported as 4840 nM, the TGI [1] is reported as > 100 µM and the GI50 [2] is reported as 11400 nM. For the same compound, the TGI [2] was > 100 µM, the GI50 [3] was 3.92 µM and the TGI [3] was 29.6 µM. For the same compound, the GI50 [4] was > 24200 nM, the TGI [4] was > 100 µM and the GI50 [5] was > 81500 nM. For the same compound, the TGI [5] was > 100 µM, the GI50 [6] was > 100000 nM and the TGI [6] was > 100 µM. The GI50 [7] was 5920 nM, the TGI [7] was > 100 µM and the GI50 [8] was > 100000 nM. The TGI [8] was > 100 µM, the GI50 [9] was 2690 nM and the TGI [9] was > 50.1 µM. The GI50 [10] was > 43000 nM and the TGI [10] was > 100 µM.
For `CN(C)c1ccc(-c2cc(-c3ccc(Nc4nc(Nc5ccccc5)nc(Nc5ccc(Cl)cc5)n4)cc3)nc(N)n2)cc1`, the GI50 [1] was 8470 nM, the TGI [1] was 53.5 µM and the GI50 [2] was 3510 nM. For the same compound, the TGI [2] was 15.2 µM, the GI50 [3] was 5.88 µM and the TGI [3] was > 100 µM. For the same compound, the GI50 [4] was 5340 nM, the TGI [4] was > 100 µM and the GI50 [5] was 13500 nM. The TGI [5] was 69.2 µM, the GI50 [6] was 3320 nM and the TGI [6] was 20 µM. The GI50 [7] was 4260 nM, the TGI [7] was > 100 µM and the GI50 [8] was 3040 nM. It also gave a TGI [8] of 17.9 µM, a GI50 [9] of 2780 nM and a TGI [9] of 12.9 µM. It also gave a GI50 [10] of 2040 nM and a TGI [10] of 11.6 µM.
`C/C(=C\c1ccn(-c2ccc(N)c(F)c2)n1)[C@@H]1C[C@@H]2O[C@]2(C)CCC[C@H](C)[C@H](O)[C@@H](C)C(=O)C(C)(C)[C@@H](O)CC(=O)O1` was tested, and the GI50 [1] was 13.8 nM, the TGI [1] was > 50 µM and the GI50 [2] was 7.96 nM. For the same compound, the TGI [2] was > 50 µM, the GI50 [3] was 0.234 µM and the TGI [3] was > 50 µM. For the same compound, the GI50 [4] was 11.8 nM, the TGI [4] was > 50 µM and the GI50 [5] was 48 nM. For the same compound, the TGI [5] was > 50 µM, the GI50 [6] was 9.55 nM and the TGI [6] was > 25.4 µM. For the same compound, the GI50 [7] was 9.13 nM, the TGI [7] was > 50 µM and the GI50 [8] was 24.9 nM. For the same compound, the TGI [8] was > 50 µM, the GI50 [9] was 11.9 nM and the TGI [9] was 0.109 µM. For the same compound, the GI50 [10] was 8.45 nM and the TGI [10] was 0.128 µM.
Compound `COc1ccc(C(=O)/C=C/c2c(C(F)(F)F)nc3sccn23)cc1OC` has a GI50 [1] of 2780 nM, a TGI [1] of 27.9 µM and a GI50 [2] of 1400 nM. The TGI [2] was 68.7 µM, the GI50 [3] was 5.1 µM and the TGI [3] was > 100 µM. The GI50 [4] was 4650 nM, the TGI [4] was > 100 µM and the GI50 [5] was 4250 nM. For the same compound, the TGI [5] was > 100 µM, the GI50 [6] was 1620 nM and the TGI [6] was > 100 µM. For the same compound, the GI50 [7] was 2540 nM, the TGI [7] was > 100 µM and the GI50 [8] was 2900 nM. It also gave a TGI [8] of 40.7 µM, a GI50 [9] of 2510 nM and a TGI [9] of 29.8 µM. It also gave a GI50 [10] of 4560 nM and a TGI [10] of 72.4 µM.
`C=C(C)C(=O)OC1CC2=CC(CC3(C)OC3C3OC(=O)C(=C)C13)OC2=O` (stereo not given) gave a TGI [1] of 30.9 µM, a TGI [2] of 17.1 µM and a TGI [3] of 16.7 µM. For the same compound, the TGI [4] was 36.5 µM, the TGI [5] was 33.9 µM and the GI50 [6] was 865 nM. For the same compound, the TGI [6] was 2.75 µM, the TGI [7] was 20.2 µM and the TGI [8] was 22.6 µM. The TGI [9] was 9.37 µM and the TGI [10] was 7.08 µM.
`O=C1/C(=C/c2ccccc2F)CNC/C1=C\c1ccccc1F` was tested, and the GI50 [1] was 693 nM and 838 nM, the TGI [1] was 1.81 µM and 3.27 µM and the GI50 [2] was 224 nM and 177 nM. The TGI [2] was 0.549 µM and 0.341 µM, the GI50 [3] was 4.86 µM and 0.779 µM and the TGI [3] was 8.55 µM and 2.58 µM. For the same compound, the GI50 [4] was 1810 nM and 1270 nM, the TGI [4] was 9.35 µM and 5.59 µM and the GI50 [5] was 643 nM and 1010 nM. For the same compound, the TGI [5] was 2.66 µM and 3.99 µM, the GI50 [6] was 191 nM and 220 nM and the TGI [6] was 0.697 µM and 0.563 µM. For the same compound, the GI50 [7] was 196 nM and 291 nM, the TGI [7] was 0.511 µM and 1.16 µM and the GI50 [8] was 1070 nM and 2600 nM. The TGI [8] was 6.1 µM and 12.2 µM, the GI50 [9] was 385 nM and 728 nM and the TGI [9] was 1.12 µM and 1.87 µM. For the same compound, the GI50 [10] was 820 nM and 584 nM and the TGI [10] was 2.57 µM and 1.82 µM.
With `COc1cc(C(O)c2nc3ccccc3s2)cc(OC)c1OC` (stereo not given) the GI50 [1] was 7320 nM, the TGI [1] was > 100 µM and the GI50 [2] was 45400 nM. For the same compound, the TGI [2] was > 100 µM, the GI50 [3] was 65.5 µM and the TGI [3] was > 100 µM. The GI50 [4] was 86700 nM, the TGI [4] was > 100 µM and the GI50 [5] was > 100000 nM. For the same compound, the TGI [5] was > 100 µM, the GI50 [6] was 7900 nM and the TGI [6] was > 100 µM. For the same compound, the GI50 [7] was > 100000 nM, the TGI [7] was > 100 µM and the GI50 [8] was 17300 nM. The TGI [8] was > 100 µM, the GI50 [9] was > 100000 nM and the TGI [9] was > 100 µM. The GI50 [10] was > 100000 nM and the TGI [10] was > 100 µM.
With `C[C@H]1[C@H](C)CC[C@]2(C(=O)N3CCN(C)CC3)CC[C@]3(C)C(=CC[C@@H]4[C@@]5(C)C/C(=C/c6cccnc6)C(=O)C(C)(C)[C@@H]5CC[C@]43C)[C@H]12` the GI50 [1] was 1570 nM, the TGI [1] was 3.19 µM and the GI50 [2] was 669 nM. It also gave a TGI [2] of 1.89 µM, a GI50 [3] of 1.23 µM and a TGI [3] of 2.49 µM. For the same compound, the GI50 [4] was 1060 nM, the TGI [4] was 2.32 µM and the GI50 [5] was 956 nM. The TGI [5] was 2.23 µM, the GI50 [6] was 1490 nM and the TGI [6] was 4.15 µM. The GI50 [7] was 960 nM, the TGI [7] was 2.45 µM and the GI50 [8] was 511 nM. For the same compound, the TGI [8] was 2.16 µM, the GI50 [9] was 1240 nM and the TGI [9] was 2.55 µM. The GI50 [10] was 1530 nM and the TGI [10] was 4.78 µM.

Source: PubChem BioAssay (NCI)
